Several values for one entry are separate records, joined by “and”; a condition that tells them apart may be missing. Identical values can stand only once. Like-named read-outs stand apart in the source and are kept apart here.
Tests used:
IDH1 R132H [1] = molecular target: T1, IDH1 R132H (Homo sapiens, UniProt O75874, R132H); assay: High throughput screening for IDH1 R132H inhibitors (NADPH/αKG, resazurin detection); assay type: biochemical; conditions: for IC50 Ratio (40/4): ratio of ICDH IC50 at 40 uM vs 4 uM NADPH
T1 construct: The resultant fragments for IDH1 (full length) and IDH2 (residues 40-452) were cloned into vector pET41a; made in house; host or cells: E. coli
Description: Assays were conducted in a volume of 76 ul assay buffer (150 mM NaCl, 10 mM MgCl2, 20 mM Tris pH 7.5, 0.03% bovine serum albumin) as follows in a standard 384-well plate: To 25 ul of substrate mix (8 uM NADPH, 2 mM αKG), 1 ul of test compound was added in DMSO. […] The reaction was incubated for 50 minutes at room temperature, then 25 ul of detection mix (30 uM resazurin, […]) was added and the mixture further incubated for 5 minutes at room temperature. The conversion of resazurin to resorufin was detected by fluorescent spectroscopy at Ex544 Em590 c/o 590.
(§1) The selectivity between wild type vs mutant could be >20-fold.

LDHa = LDHa (Homo sapiens, UniProt P00338); assay: LDHa IC50 (Table 24a); assay type: biochemical
LDHb = LDHb (Homo sapiens, UniProt P07195); assay: LDHb IC50 (Table 24a); assay type: biochemical
IDH1 wild-type = molecular target: T2, IDH1 wild-type (Homo sapiens, UniProt O75874); assay: Inhibition of oxidative decarboxylation of isocitrate to α-KG by IDH1 wild-type; assay type: biochemical; conditions: for effect on the oxidative decarboxylation of isocitrate by wild-type ICDH1: added in a titration series
T2 construct: The resultant fragments for IDH1 (full length) and IDH2 (residues 40-452) were cloned into vector pET41a; made in house; host or cells: E. coli Rosetta
Description: (§2) In these reactions, the substrate was varied while the cofactor was held constant at 500 uM. All reactions were performed in 150 mM NaCl, 20 mM Tris-Cl, pH 7.5, 10% glycerol, and 0.03% (w/v) BSA). Reaction progress was followed by spectroscopy at 340 nM monitoring the change in oxidation state of the cofactor. Sufficient enzyme was added to give a linear change in absorbance for 10 minutes.
(§3) A well-known regulatory mechanism for control of metabolic enzymes is feedback inhibition, in which the product of the reaction acts as a negative regulator for the generating enzyme.
(§4) Final concentrations: Tris 7.5 20 mM, NaCl 150 mM, MnCl2 2 mM, Glycerol 10%, BSA 0.03%, NADP 0.5 mM, IDH1 wt 1.5 ug/ml, IDH1R132S 30 ug/ml, IDH1R132H 60 ug/ml, DL-isocitrate (5-650 uM).
A reaction containing the wild-type ICDH1, NADP, and α-KG was assembled (under conditions as described above) to which was added in a titration series either (R)-2-hydroxyglutarate or the reaction product of the ICDH1 […] mutant reduction of α-KG to 2-hydroxyglutarate.

IDH1 R132H [2] = molecular target: T1, IDH1 R132H; assay: Inhibition of oxidative decarboxylation of isocitrate to α-KG by IDH1 R132H; assay type: biochemical
Description: as §2, §3, §4

IDH1 R132S = molecular target: T3, IDH1 R132S (Homo sapiens, UniProt O75874, R132S); assay: Inhibition of oxidative decarboxylation of isocitrate to α-KG by IDH1 R132S; assay type: biochemical
T3 construct: The resultant fragments for IDH1 (full length) and IDH2 (residues 40-452) were cloned into vector pET41a; made in house; host or cells: E. coli Rosetta
Description: as §2, §3, §4

IDH1 wt = molecular target: T4, IDH1 wt (Homo sapiens, UniProt O75874); assay: IDH1 wt assay (wild type vs mutant selectivity); assay type: biochemical
T4 construct: The resultant fragments for IDH1 (full length) and IDH2 (residues 40-452) were cloned into vector pET41a; made in house; host or cells: E. coli
Text: as §1

glioblastoma multiforme = glioblastoma multiforme patients; cited from earlier work
[3] = IDH1/2 activity assay, forward reaction (isocitrate and NADP+); assay type: biochemical, human; conditions: Oxidative (→NADPH), recombinant IDH1; for Ki: inhibition by aKG; for Km: read-out: KM,isocitrate
Description: (§5) All reactions were performed in standard enzyme reaction buffer (150 mM NaCl, 20 mM Tris-Cl, pH 7.5, 10 mM MgCl2 and 0.03% (w/v) bovine serum albumin). For determination of kinetic parameters, sufficient enzyme was added to give a linear reaction for 1 to 5 seconds. Enzymatic binding constants were determined using curve fitting algorithms to standard kinetic models with the Sigmaplot software package (Systat Software, San Jose, Calif.). For determination of kcat, enzyme was incubated with 5×Km of substrate and cofactor; consumption of NADPH or NADP was determined by a change in the OD340 over time. In both cases an extinction coefficient of 6200 M^−1 cm^−1 was used for NADPH.

[4] = IDH1/2 activity assay, reverse reaction (α-KG and NADPH); assay type: biochemical, human; conditions: reductive (→NADP^+)
Description: as §5

[5] = Reduction of alpha-ketoglutarate with NADH by IDH1 wild-type and mutants; assay type: biochemical, human
Description: In order to evaluate the ability of the mutant enzymes to utilize NADH in the reduction of alpha-ketoglutarate, the following experiment was conducted.

[6] = Recombinant IDH1 enzyme assays (stopped-flow, 340 nm); assay type: biochemical, human; conditions: NADP+-dependent oxidative decarboxylation of isocitrate, vs wild-type
Description: 293T and the human glioblastoma cell lines U87MG and LN-18 were cultured in DMEM, 10% fetal bovine serum. Cells were transfected and selected using standard techniques. Protein expression levels were determined by Western blot analysis using IDHc antibody (Santa Cruz Biotechnology), IDH1 antibody (proteintech), MYC tag antibody (Cell Signaling Technology), and IDH2 antibody (Abcam). Metabolites were extracted from cultured cells and from tissue samples according to close variants of a previously reported method (Lu, W., Kimball, E. & Rabinowitz, J. D. J Am Soc Mass Spectrom 17, 37-50 (2006)), using 80% aqueous methanol (−80° C.) and either tissue scraping or homogenization to disrupt cells. […] For enzyme assays using recombinant IDH1 enzyme, proteins were produced in E. coli and purified using Ni affinity chromatography followed by Sephacryl S-200 size-exclusion chromatography. […] Chirality of 2HG was determined as described previously (Struys, E. A., Jansen, E. E., Verhoeven, N. M. & Jakobs, C. Clin Chem 50, 1391-5 (2004)). […] The IDH1 mutation status of each sample was determined using standard molecular biology techniques as described previously (Yan, H. et al. N Engl J Med 360, 765-73 (2009)). Metabolites were extracted and analyzed by LC-MS/MS as described above. […]

[7] = Enzyme kinetics of IDH1 wild-type and mutants in oxidative decarboxylation of isocitrate to α-KG; assay type: biochemical, human
Description: as §2
All data was fit to the Hill equation by least-squares regression analysis.

[8] = Enzyme kinetics of IDH1 wild-type and mutants in reduction of α-KG with NADPH; assay type: biochemical, human; conditions: for consumption of NADPH in reduction of α-KG: 40 ug/ml of enzyme
Description: In these reactions, substrate was varied while the cofactor was held constant at 500 uM. All reactions were performed in 50 mM potassium phosphate buffer, pH 6.5, 10% glycerol, 0.03% (w/v) BSA, 5 mM MgCl2, and 40 mM sodium hydrocarbonate. Reaction progress was followed by spectroscopy at 340 nM monitoring the change in oxidation state of the cofactor. Sufficient enzyme was added to give a linear change in absorbance for 10 minutes.

[9] = NADH 0.5 mM, alpha-Ketoglutarate 5 mM

T2 sequence (O75874 whole entry, the tested form may be a part): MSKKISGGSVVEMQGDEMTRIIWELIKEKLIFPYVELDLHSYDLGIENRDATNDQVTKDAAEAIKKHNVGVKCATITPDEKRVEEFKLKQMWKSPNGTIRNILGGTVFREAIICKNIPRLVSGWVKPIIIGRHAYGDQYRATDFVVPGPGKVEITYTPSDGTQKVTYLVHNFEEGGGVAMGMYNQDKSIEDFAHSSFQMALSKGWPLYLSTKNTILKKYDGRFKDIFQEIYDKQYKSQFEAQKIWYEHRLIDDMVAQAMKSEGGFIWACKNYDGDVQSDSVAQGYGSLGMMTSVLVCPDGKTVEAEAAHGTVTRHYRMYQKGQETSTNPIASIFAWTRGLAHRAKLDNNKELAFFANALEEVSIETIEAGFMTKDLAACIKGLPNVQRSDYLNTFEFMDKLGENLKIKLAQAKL
Chain of LDHb (P07195 whole entry, species assumed): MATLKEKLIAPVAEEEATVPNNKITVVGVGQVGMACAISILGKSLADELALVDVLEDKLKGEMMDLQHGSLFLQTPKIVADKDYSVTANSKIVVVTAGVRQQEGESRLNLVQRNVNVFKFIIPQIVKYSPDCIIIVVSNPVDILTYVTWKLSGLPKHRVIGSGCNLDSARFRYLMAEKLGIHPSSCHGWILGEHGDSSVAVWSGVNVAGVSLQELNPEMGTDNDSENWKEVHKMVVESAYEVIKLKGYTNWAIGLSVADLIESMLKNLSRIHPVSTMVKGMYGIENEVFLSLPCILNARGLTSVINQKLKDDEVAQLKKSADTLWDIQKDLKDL
T3 sequence (O75874 whole entry R132S, the tested form may be a part): as the sequence (O75874 whole entry, the tested form may be a part) above, with R132S counted along it
T1 sequence (O75874 whole entry R132H, the tested form may be a part): as the sequence (O75874 whole entry, the tested form may be a part) above, with R132H counted along it
T4 sequence (O75874 whole entry, the tested form may be a part): as the sequence (O75874 whole entry, the tested form may be a part) above

Cc1c(/C=C2\Sc3ccccc3C2=O)c(O)n2c(nc3ccccc32)c1C#N
IC50 Ratio (40/4) (IDH1 R132H [1]): 17.42 | IC50 (LDHa): 25.4 µM | IC50 (LDHb): 64.1 µM

O=C1NC(=S)S/C1=C\c1cccc(OC(=O)c2cccc(F)c2)c1
IC50 Ratio (40/4) (IDH1 R132H [1]): 1.15 | IC50 (LDHa): 8.61 µM | IC50 (LDHb): > 100 µM

Cc1cc(C(=O)O)ccc1-c1ccc(/C=C2/NC(=O)N(Cc3ccc(Br)cc3)C2=O)o1
IC50 Ratio (40/4) (IDH1 R132H [1]): 1.28 | IC50 (LDHa): 33.8 µM | IC50 (LDHb): > 100 µM

O=C1NC(=S)S/C1=C/c1cccc(OCc2ccc([N+](=O)[O-])cc2)c1
IC50 Ratio (40/4) (IDH1 R132H [1]): 1.39 | IC50 (LDHa): 12.8 µM | IC50 (LDHb): > 100 µM

O=C(O)CC[C@@H](O)C(=O)O [(R)-2-hydroxyglutarate]
effect on the oxidative decarboxylation of isocitrate by wild-type ICDH1 (IDH1 wild-type): did not show any effect

O=C(O)C(=O)C(C(=O)O)C(O)C(=O)O (stereo not shown) [Oxalomalate, oxalomalate]
Ki (IDH1 wild-type; IDH1 wt 1.5 ug/ml, competitive with isocitrate, NADP 0.5 mM, read-out: Oxalomalate Ki): 955 µM | Ki (IDH1 R132H [2]; IDH1R132H 60 ug/ml, competitive with isocitrate, NADP 0.5 mM, read-out: Oxalomalate Ki): 951 µM | susceptibility to inhibition by oxalomalate (IDH1 R132H [2]; R132H mutation compared with wt): essentially unaffected | Ki (IDH1 R132S; IDH1R132S 30 ug/ml, competitive with isocitrate, NADP 0.5 mM, read-out: Oxalomalate Ki): 510 µM | susceptibility to inhibition by oxalomalate (IDH1 R132S; R132S mutation compared with wt): approximately a two-fold increase in susceptibility

Cc1ccc(C2=NN(c3ccccc3)C(c3cn(CCC(=O)O)nc3-c3ccccc3)C2)cc1 (stereo not shown) [drawing 31]
IC50 Ratio (40/4) (IDH1 R132H [1]): 3.38 | IDH1wt IC50 @ 1x Km (uM) (IDH1 wt; 1x Km of NADPH): NO inhibition | IC50 (LDHa): 5.92 µM | IC50 (LDHb): 17.4 µM

Cc1c(C=C2Sc3ccccc3C2=O)c(O)n2c(nc3ccccc32)c1C#N [first example]
IC50 when assayed at 100×Km (IDH1 R132H [1]; IDH1R132H at 100× Km of NADPH): shifted significantly | IC50 (IDH1 R132H [1]; IDH1R132H, presumably at 10× Km of NADPH): 5.74 µM

O=C(O)CCC(O)C(=O)O (stereo not shown) [reaction product 2-HG, 2-hydroxyglutarate]
effect on the oxidative decarboxylation of isocitrate by wild-type ICDH1 (IDH1 wild-type): inhibit

Cc1ccc(C2=NN(c3ccccc3)C(c3cn(CCC(=O)O)nc3-c3ccccc3)C2)cc1 (stereo not shown) [second example]
inhibition of IDH1 wt (IDH1 wt; even at 100 uM, 1× Km of NADPH): no inhibition

Cn1nnc2c(C(N)=O)ncn2c1=O [temozolomide]
tolerability (glioblastoma multiforme): well tolerated

O=C(O)CCC(=O)C(=O)O [α-KG, α-ketoglutarate]
Ki (IDH1 wild-type): 612 µM | Ki (IDH1 R132H [2]): 28.6 µM | Ki (IDH1 R132S): 45.3 µM

R132C
Ki [3]: 61 µM | kcat [3]: 710 s⁻¹ | Km [3]: 87000 µM | kcat ([4]; WT value estimated (est.)): 550 s⁻¹ | Km ([4]; n/a indicates no measureable activity): 0.3 µM

R132H: recombinant IDH1 Arg132His mutant with C-terminal His8 tag expressed in E. coli
consumption of NADH in the presence of alpha-ketoglutarate [5, 9]: no measurable consumption of NADH | decrease in catalytic turnover [6]: 1000 fold

R132S: recombinant IDH1 Arg132Ser mutant with C-terminal His8 tag expressed in E. coli
increase in Km ([7]; Km for isocitrate compared to wild-type): 20,000 fold | Vmax ([7]; isocitrate varied, cofactor 500 uM): 95 µmol/min/mg | Hill Constant ([7]; isocitrate, fit to Hill equation): 0.479 | consumption of NADPH in reduction of α-KG [8]: reduced α-KG and consumed NADPH | Ki ([8]; uncompetitive substrate inhibition by α-KG): 24600 µM | Hill Constant ([8]; α-KG): 0.479 | Vmax ([8]; α-KG varied, NADPH 500 uM, pH 6.5): 2.7 µmol/min/mg | consumption of NADH in the presence of alpha-ketoglutarate [5, 9]: demonstrated the ability to utilize NADH | Umol/min/mg ([5]; consumption of NADH, individual determinations): 0.7183 Umol/min/mg and 0.6997 Umol/min/mg | Rate (ΔA/sec) ([5]; consumption of NADH, individual determinations, NADH 0.5 mM, alpha-Ketoglutarate 5 mM): 0.001117 ΔA/sec and 0.001088 ΔA/sec | Rate (ΔA/sec) Mean ([5]; consumption of NADH, mean): 0.001103 ΔA/sec | Umol/min/mg Mean ([5]; consumption of NADH, mean): 0.709 Umol/min/mg

Wt: recombinant wild type IDH1 with C-terminal His8 tag expressed in E. coli
consumption of NADPH in reduction of α-KG [8]: unable to consume NADPH | consumption of NADH in the presence of alpha-ketoglutarate [5, 9]: no measurable consumption of NADH | Ki [3]: 610 µM | kcat [3]: 130000 s⁻¹ | Km [3]: 57 µM | kcat(s^−1) ([4]; WT value estimated (est.)): ~7 (est.) s^−1

Source: patent publication US10711314B2, “Methods for diagnosing IDH-mutant cell proliferation disorders” (Agios Pharmaceuticals, Inc., priority 2009, dated 2020)
